The nature of series [1]: Single-dose intravenous and oral pharmacokinetic study in mice. It is filed as in vivo, Balb/c mice. How it is done:
Twenty-seven male Balb/c mice were randomly divided into 3 groups, 9 mice in each group. Group 1: mice received an intravenous (IV) dose of Compound 1 at 5 mg/kg with a dosing volume of 5 mL/kg. Blood samples were collected at 0.083, 0.25, 0.5, 1, 2, 4, 6, 8, and 24 hours post-dose using a staggered sampling method. Group 2: mice received an oral (gavage) dose of Compound 1 at 50 mg/kg with a dosing volume of 10 mL/kg. Blood samples were collected at 0.25, 0.5, 1, 2, 4, 6, 8, and 24 hours post-dose using a staggered sampling method. Group 3: mice received an oral (gavage) dose of palbociclib at 50 mg/kg with a dosing volume of 10 mL/kg. Blood samples were collected at 1, 3, 4, 6, 8, 10, 12, and 24 hours post-dose using a staggered sampling method. For each group, 3 samples were collected at each time point. Plasma was separated by centrifugation and stored at −70° C. The concentrations of Compound 1 or palbociclib in plasma were measured using LC-MS/MS.

Series [2] is described as follows: Intestinal tissue distribution study following a single oral administration in rats. The settings on record: male rats, single oral 25 mg/kg; for Kp: read-out: Tissue-to-plasma concentration ratio. The class given is in vivo, Sprague Dawley rats. How it is done: Nine male Sprague Dawley rats were orally administered Compound 1 at a dose of 25 mg/kg with a dosing volume of 10 mL/kg using purified water as the vehicle. At 0.25, 2, and 6 hours post-dosing, three animals were euthanized at each time point. A 200 μL whole blood sample was collected via cardiac puncture and plasma was separated by centrifugation.
The duodenum, jejunum, ileum, and colon were collected, contents removed, rinsed with ice-cold water, and surface moisture was blotted with filter paper before weighing. For each gram of tissue, 5 mL of methanol-water (1:3, v/v) was added for homogenization. The drug concentrations in plasma and intestinal tissue homogenates of each intestinal segment tissue were measured using LC-MS/MS.

The mark [3] stands for this setting: mouse, male Balb/c mice, IV 5 mg/kg, plasma.
[4] abbreviates: mouse, male Balb/c mice, PO 50 mg/kg, plasma.

Molecules are shown by their SMILES. Read-outs that look alike come from different tables or passages of the source.

As a reminder, the half-life is how long it takes for the measured level to halve. A low value points to fast loss. One may read the Cmax as the peak of the concentration-time curve. In general, Tmax refers to the time from dosing to the highest level. Turning to `CC(=O)c1c(C)c2c(n(C3CCCC3)c1=O)=NC(Nc1ccc(N3CCN(S(=O)(=O)NCCN)CC3)cn1)NC=2` (stereo not drawn) [Compound 1], the F in series [1] (male Balb/c mice, PO 50 mg/kg vs IV 5 mg/kg) is on record as 0.6%. The “plasma concentration following oral administration compared with palbociclib” value in series [1] (mice, PO 50 mg/kg, in words) was “significantly lower than that of palbociclib”. Also, the AUC(0-t) in series [1] (setting [3]) was determined as 670 ng·h/mL; in series [1] (setting [4]), 39.2 ng·h/mL; in series [2] (Sprague Dawley, rat, Plasma, read-out: AUC0-t) it was 1.26 ng·h/mL; in series [2] (Colon), 632 ng·h/g; in series [2] (Duodenum), 19300 ng·h/g; in series [2] (Ileum) it was 5980 ng·h/g. In series [2] (Jejunum), this compound registered an AUC(0-t) of 5420 ng·h/g. In series [1] (setting [3]), this compound gave a clearance of 119 mL/min/kg. The half-life in series [1] (setting [3]) is 2.69 h. The Vd in series [1] (mouse, male Balb/c mice, IV 5 mg/kg, plasma, read-out: Vdss) was determined as 11 L/kg. Also, in series [1] (setting [4]), the highest concentration (Cmax) is 21 ng/mL. In series [1] (setting [4]), the Tmax is 1 h. In addition, the Kp in series [2] (Sprague Dawley, rat, Colon, ratio of AUC values) worked out at 502; in series [2] (Sprague Dawley, rat, Ileum, ratio of AUC values), 4750; in series [2] (Sprague Dawley, rat, Jejunum, ratio of AUC values) it was 4300. The Tissue-to-plasma concentration ratio in series [2] (Duodenum, ratio of AUC values) was determined as 15300.

The record behind these values is patent US20260207604A1, “COMPOUND AND USE THEREOF” (ONQUALITY PHARMACEUTICALS CHINA LTD., priority 2022, published 2026).
